Results from the NIST ThermoML archive (doi:10.1021/je300345m).
Numbers after ± are expanded uncertainties.

Assays:
[1] = Liquid, Vibrating tube method
[2] = xn = mol fraction of the nth substance listed; settings: Liquid, Vibrating tube method, x2 = 0

OCCNCCO [diethanolamine]
[1]
Settings | mass density [kg/m3]
298.15 K, 100 kPa | 1093.6 ± 3.6
303.15 K, 100 kPa | 1090.4 ± 3.6
308.15 K, 100 kPa | 1087.1 ± 3.6
313.15 K, 100 kPa | 1083.8 ± 3.6
318.15 K, 100 kPa | 1080.6 ± 3.6
323.15 K, 100 kPa | 1077.4 ± 3.6
328.15 K, 100 kPa | 1074.1 ± 3.6
333.15 K, 100 kPa | 1070.8 ± 3.6
338.15 K, 100 kPa | 1067.4 ± 3.6
343.15 K, 100 kPa | 1064 ± 3.6
348.15 K, 100 kPa | 1060.6 ± 3.6
353.15 K, 100 kPa | 1057.2 ± 3.6
358.15 K, 100 kPa | 1053.7 ± 3.6
363.15 K, 100 kPa | 1050.1 ± 3.6
373.15 K, 700 kPa | 1043.3 ± 3.6
383.15 K, 700 kPa | 1035.5 ± 3.6
393.15 K, 700 kPa | 1028.1 ± 3.6
403.15 K, 700 kPa | 1020.5 ± 3.6
413.15 K, 700 kPa | 1012.9 ± 3.6
423.15 K, 700 kPa | 1004.8 ± 3.6

O [water] + OCCNCCO
[2]
Settings | mass density [kg/m3]
323.15 K, 100 kPa | 988 ± 3.5
328.15 K, 100 kPa | 985.7 ± 3.5
333.15 K, 100 kPa | 983.2 ± 3.5
338.15 K, 100 kPa | 980.5 ± 3.5
343.15 K, 100 kPa | 977.7 ± 3.5
348.15 K, 100 kPa | 974.8 ± 3.5
353.15 K, 100 kPa | 971.8 ± 3.5
358.15 K, 100 kPa | 968.6 ± 3.5
363.15 K, 100 kPa | 965.3 ± 3.5
373.15 K, 700 kPa | 958.6 ± 3.5
383.15 K, 700 kPa | 951.2 ± 3.5
393.15 K, 700 kPa | 943.4 ± 3.5
403.15 K, 700 kPa | 935.1 ± 3.5
413.15 K, 700 kPa | 926.3 ± 3.5
423.15 K, 700 kPa | 917.1 ± 3.5

O [water] + CN(CCO)CCO
[2]
Settings | mass density [kg/m3]
323.15 K, 100 kPa | 988 ± 3
328.15 K, 100 kPa | 985.7 ± 3
333.15 K, 100 kPa | 983.2 ± 3
338.15 K, 100 kPa | 980.5 ± 3
343.15 K, 100 kPa | 977.7 ± 3
348.15 K, 100 kPa | 974.8 ± 3
353.15 K, 100 kPa | 971.8 ± 3
358.15 K, 100 kPa | 968.6 ± 3
363.15 K, 100 kPa | 965.3 ± 3
373.15 K, 700 kPa | 958.6 ± 3
383.15 K, 700 kPa | 951.2 ± 3
393.15 K, 700 kPa | 943.4 ± 3
403.15 K, 700 kPa | 935.1 ± 3
413.15 K, 700 kPa | 926.3 ± 3
423.15 K, 700 kPa | 917.1 ± 3

CN(CCO)CCO [N-methyldiethanolamine]
[1]
Settings | mass density [kg/m3]
298.15 K, 100 kPa | 1036 ± 3.1
303.15 K, 100 kPa | 1032.4 ± 3.1
308.15 K, 100 kPa | 1028.6 ± 3.1
313.15 K, 100 kPa | 1024.8 ± 3.1
318.15 K, 100 kPa | 1021 ± 3.1
323.15 K, 100 kPa | 1017.2 ± 3.1
328.15 K, 100 kPa | 1013.3 ± 3.1
333.15 K, 100 kPa | 1009.4 ± 3.1
338.15 K, 100 kPa | 1005.6 ± 3.1
343.15 K, 100 kPa | 1001.7 ± 3.1
348.15 K, 100 kPa | 997.7 ± 3.1
353.15 K, 100 kPa | 993.8 ± 3.1
358.15 K, 100 kPa | 989.9 ± 3.1
363.15 K, 100 kPa | 985.9 ± 3.1
373.15 K, 700 kPa | 978.6 ± 3.1
383.15 K, 700 kPa | 970.3 ± 3.1
393.15 K, 700 kPa | 962.1 ± 3.1
403.15 K, 700 kPa | 953.9 ± 3.1
413.15 K, 700 kPa | 945.6 ± 3.1
423.15 K, 700 kPa | 937 ± 3.1
